Source: PubChem BioAssay (NCI)
“And” between values parts separate entries of the source, which are not always exact repeats. Equal entries are not always repeated.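 Five concentrations, 48 hours, 96-well plates. GI50 is the concentration that inhibits growth by half. TGI denotes the concentration required for complete inhibition of growth.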

Assays:
Assay in all cases: NCI anticancer screen, dose series, 48 h
[1] = system: NCI/ADR-RES ovarian
[2] = system: HT29 colon
[3] = system: NCI-H226 lung
[4] = system: PC-3 prostate
[5] = system: UACC-62 melanoma
[6] = system: UACC-257 melanoma
[7] = system: OVCAR-5 ovarian
[8] = system: RXF 393 renal

Row | SMILES | GI50 [1] [µM] | TGI [1] [µM] | GI50 [2] [µM] | TGI [2] | GI50 [3] [µM] | TGI [3] | GI50 [4] [µM] | TGI [4] | GI50 [5] [µM] | TGI [5] | GI50 [6] [µM] | TGI [6] | GI50 [7] [µM] | TGI [7] | GI50 [8] [µM] | TGI [8]
1 | CC(C)C[C@H](NC(=O)[C@@H](O)[C@H](N)Cc1ccc([N+](=O)[O-])cc1)C(=O)O | > 25 | > 25 | > 25 | > 25 µM | > 25 | > 25 µM | > 25 | > 25 µM | > 25 | > 25 µM | > 25 | > 25 µM | > 25 | > 25 µM | 19.2 | > 25 µM
2 | COc1cc(C2CC(c3ccc(N(C)C)cc3)=NN2C(C)=O)cc(OC)c1OC (configuration not stated) | 3.78 | > 100 | 0.909 | > 39.5 µM | 6.46 | > 100 µM | 1.42 | > 100 µM | 1.48 | > 100 µM | > 69.5 | > 100 µM | > 27.8 | > 100 µM | 2.73 | > 22.9 µM
3 | C=C1CCC2C3(C)COC(c4ccccc4Br)OC3CCC2(C)C1C/C=C1/C(=O)OCC1OC(C)=O (configuration not stated) | 1.18 | 3.12 | 0.804 | 2.37 µM | 1.64 | 3.42 µM | 1.63 | 3.76 µM | 1.42 | 2.86 µM | 1.57 | 2.99 µM | 1.85 | 3.28 µM | 1.54 | 2.96 µM
4 | CN(C(=O)c1ccncc1)c1ccccc1 |  | > 100 |  | > 100 µM |  | > 100 µM |  | > 100 µM |  | > 100 µM |  | > 100 µM |  | > 100 µM |  | > 100 µM
5 | CCOc1ccccc1/C=N\N=C(\N)N/N=C/c1ccccc1OCC | 2.62 | > 100 | 2.5 | > 100 µM | 5.55 | > 100 µM | 3.14 | > 100 µM | 0.914 | > 100 µM | 4.37 | > 100 µM |  |  | 1.26 | 3.82 µM
6 | Cc1cn2c(/C=N/Nc3ccccn3)c(-c3ccc(Cl)c([N+](=O)[O-])c3)nc2s1 | 11.3 | 30.9 |  |  |  |  | 20.8 | > 50 µM | 14.1 | 46.3 µM | 21.3 | > 50 µM | 11.8 | 39.5 µM |  | 
7 | COC(=O)C(F)C(Br)C(=O)OC (configuration not stated) |  | 8.93 |  | 5.43 µM |  | 43.4 µM |  | 10.1 µM |  | 30.4 µM |  | 28.4 µM |  | 31.8 µM |  | 6.95 µM
8 | Nc1nc(N)c(N=O)c(OCC2CCCCC2)n1 |  | > 100 | 6.88 | > 100 µM and 74.2 µM | 6.65 | > 100 µM and 46.5 µM | 3.23 | > 100 µM and 22.9 µM |  | 42.6 µM and 40.7 µM | 17.2 | > 100 µM and 38.9 µM | 17.2 | > 100 µM and 57.8 µM | 8.04 | 42.3 µM and 48.1 µM
